The source of these data is patent US7897637B2, “Methods of using flavonoids to enhance memory” (The Salk Institute for Biological Studies, priority 2006, dated 2011).

SMILES strings stand for the structures. “Also recorded” adds a separate entry of the source.

The test system of one series is CREB. The experiment in a line: CREB phosphorylation in hippocampal slices (immunoblotting, densitometry). It is filed as cell-based, rat. To be noted: for CREB phosphoprotein signal normalized to total protein: 1 μM. The method, then:
(§1) Western blots panels A and B) of hippocampal slices treated with (A) 1 μM fisetin or (B) pretreated for 30 minutes with either 50 μM PD98059 (PD) or 10 μM U0126 (U) before the addition of 1 μM fisetin for 5 minutes, which blots were probed with the indicated antibodies.
(§2) Hippocampal slices in artificial cerebral spinal fluid (ACSF) were treated with either 1 μM fisetin for 5-20 minutes or pretreated for 30 minutes with either 50 μM PD98059 (PD) or 10 μM U0126 (J) before the addition of 1 μM fisetin for 5 minutes. Equal amounts of protein were analyzed by SDS-PAGE and immunoblotting with antibodies to phospho-ERK and phospho-CRFB along with antibodies to the unphosphorylated forms of the proteins. The average phosphoprotein signal from the blots was quantified by densitometry and normalized to total protein was plotted±S.D.
(Immunoblotting shows a protein as a band on a membrane.)

The next series deals with Sprague-Drawley rats. In words: Morris water maze (spatial learning and memory). The class given is in vivo. To be noted: 25 mg/kg by gavage. The method, then:
This example describes use of the Morris water maze (MWM) to examine hippocampus-dependent spatial learning and memory in rats. The standard test consists of two parts; a training phase, which measures the ability of the animals to learn where a hidden platform is located within an opaque pool of water and a probe test, which is performed 24 hours after the last training trial and measures the ability of the animals to remember the location of the platform (Vorhees & Williams, Nature Protocols 1.848-58, 2(006))
To test whether oral administration of fisetin could increase spatial learning and/or memory, young male Sprague-Drawley rats (8 weeks old) were administered fisetin by gavage (25 mg/kg) beginning one day before the training phase and continuing throughout the 8 days of training. The rats were given four trials a day for 8 days. Retention of the spatial training was assessed 24 hours after the last training trial. The probe trial consisted of a 60 second free swim in the pool without the platform. Both the training and probe trials were monitored by a video camera mounted above the pool and all data were analyzed by software provided with the video-tracking program.

The next series deals with Rabbits. In words: Small blood clot embolism model of brain ischemia (P50). It is filed as in vivo. As to conditions: 50 mg/kg intravenously, bolus 5 minutes after embolization; 24 hours post-embolism. On the procedure: Rabbits were embolized with small blood clots of varying size (from about 1 mg to about 4 mg) according to the procedure described by Lapchak et al. (Exp. Neurol., 188.279-285, 2004). […] In some subjects, fisetin treatment (50 mg/kg delivered intravenously) was given as a bolus 5 minutes after embolization. Twenty four (24) hours later, a naïve observer rated each treated or control animal as either behaviorally normal or abnormal. Rabbits judged “abnormal” included those with at least one of the following symptoms: ataxia, leaning, circling, lethargy, nystagmus, loss of balance, loss of sensation and occasionally paraplegia. […] The effective stroke dose or P50 value was then calculated as the amount of microclots (in mg) that produce behavioral impairment in 50% of the animals within a specific treatment group.

The next series concerns ERK2 (p42). In words: ERK2 (p42) phosphorylation in hippocampal slices (immunoblotting, densitometry). The class given is cell-based, rat. As to conditions: for p42 phosphoprotein signal normalized to total protein: 1 μM. The method, then:
as §1, §2

Another series relates to PC12 cells. To be noted: at 10 μM; Sagara et al. 2004; cited from earlier work.
The next series relates to ERK1 (p44). The experiment in a line: ERK1 (p44) phosphorylation in hippocampal slices (immunoblotting, densitometry). It is filed as cell-based, rat. As to conditions: for p44 phosphoprotein signal normalized to total protein: 1 μM. On the procedure:
as §1, §2

The next series concerns C57BL/6 mice. In words: MPTP-induced striatal dopamine loss. The class given is in vivo. The method, then:
C57BL/6 mice from about 11 to 12 week old (20-25 g) were injected with a single dose of […] 1-methyl-4-phenyl-1,2,3,6-tetrahydropyridine (MPTP). MPTP is toxic to dopaminergic neurons in the substantia nigra, and produces many of the symptoms of Parkinson's disease. MPTP-treated mice have long been used as a model of human Parkinson's disease (see, e.g., reviews by Smeyne and Jackson-Lewis, Brain Bes. Mol. Brain Res., 134(1):57-66, 2005; Tetrud and Langston, Acta Neurol. Scand. Suppl., 126:35-40, 1989). After 8 days, the animals were euthanized and the striata dissected and assayed for dopamine content by HPLC combined with electrochemical detection, as previously described (Irwin e/al., Brain Res., 572:224-231, 1992). One group of untreated mice (n=4) and one group of MPTP-treated mice (n=4) received orally administered fisetin (25 mg/kg) beginning one day before treatment groups received MPTP and continuing for the same time period as MPTP treatment in treatment groups. Mice untreated with MPTP or fisetin (control) and mice treated with MPTP alone were also examined.

For the next series, the system named is cAMP. The experiment in a line: cAMP levels in hippocampal slices (Scintillation Proximity Assay). The class given is cell-based. The method, then:
Hippocampal slices were treated with fisetin using the conditions where maximal stimulation of CREB phosphorylation and facilitation of LTP were observed. Briefly, hippocampal slices in ACSF were treated with 1 μM fisetin for 5 minutes (fisetin) or 3 μM rolipram for 30 minutes (rolipram) and then either immediately frozen or treated with […] forskolin for an additional 15 minutes (rolipram+forskolin; fisetin+forskolin) prior to freezing. Additional slices were treated only with 5 μM forskolin for 15 minutes (forskolin). Forskolin, an activator of adenylyl cyclase, and rolipram were used as positive controls. The levels of cAMP in the slices were measured using a Scintillation Proximity Assay and presented as pmole/mg protein±S.D.

Setting [1] is: hippocampal slices, 1 μM fisetin.

As for `O=c1c(O)c(-c2ccc(O)c(O)c2)oc2cc(O)ccc12` [fisetin, 3,3′,4′,7-tetrahydroxyflavone], the “CREB phosphoprotein signal normalized to total protein” value with CREB (5 min) is 2.87±0.56; with CREB (10 min) it was 2.72±0.12; with CREB (20 min) it was 2.55±0.39. Besides, in the series with CREB (hippocampal slices, fisetin), the “increase in CREB phosphorylation” value is approximately 3 fold. The “effect on swim speed or thigmotaxis” value in the series on Sprague-Drawley rats is recorded as “no significant effect”. For the same molecule, the “ability of the rats to learn the location of the hidden platform” value with Sprague-Drawley rats (8 days of training) is “no clear effect”. Besides, in the series on Sprague-Drawley rats (24 hours after last training trial, vs vehicle), the “probe test: time in the quadrant where the platform had been located (spatial memory)” value was “significantly more time; also recorded: enhances spatial memory”. Also, the “P50 value (mg clot that produce behavioral deficits in 50% of the animals)” value in the series on Rabbits is 2.18 ± 0.42 mg. The “p42 phosphoprotein signal normalized to total protein” value in the series on ERK2 (p42) (5 min) was found to be 1.68±0.06; with ERK2 (p42) (10 min), 1.31±0.05; in the series on ERK2 (p42) (20 min), 1.42±0.03. The “increase in ERK2 phosphorylation” value in the series with ERK2 (p42) (setting [1]) came out at 2 fold. Further, the “differentiation of the cells induced” value with PC12 cells is 75-80%. For the same molecule, the “p44 phosphoprotein signal normalized to total protein” value in the series with ERK1 (p44) (5 min) amounted to 1.98±0.16; with ERK1 (p44) (10 min), 1.48±0.02; in the series with ERK1 (p44) (20 min), 1.30±0.09. Also, in the series on ERK1 (p44) (setting [1]), the “increase in ERK 1 phosphorylation” value was determined as 2 fold. Moreover, the striatal dopamine concentration result in the series on C57BL/6 mice (MPTP and fisetin 25 mg/kg oral) is “at least as high as control”; in the series with C57BL/6 mice (fisetin alone 25 mg/kg oral, no MPTP), “highest concentrations of striatal dopamine”. The “effect on cAMP levels by itself” value with cAMP (1 μM fisetin 5 minutes, 3 μM rolipram 30 minutes) is “no effect; also recorded: does not increase cAMP levels”. Besides, the “potentiation of the effect of forskolin on cAMP levels” value with cAMP (then 5 μM forskolin for 15 minutes) is listed as “nor did it potentiate”.
